Patent US10681909B2, “Herbicidal triazoles” (FMC Corporation, priority 2014, dated 2020)

What was measured:
corn = assay: Test A preemergence; type: in vivo, Zea mays; conditions: Zea mays, pre-emergence, 240 h, 0 to 100 scale (0 no effect, 100 complete control); for Corn plant response rating (crop injury, 0 = no effect, 100 = complete kill) at 125 g/ha: 125 g ai/ha; for Corn plant response rating (crop injury, 0 = no effect, 100 = complete kill) at 500 g/ha: 500 g ai/ha, approx. 10 d
Outline: (§1)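 Test chemicals, formulated in a surfactant-containing non-phytotoxic solvent mixture, are applied either as a directed soil spray to newly planted seeds or as a postemergence application to plants at the one- to two-leaf stage (2–10 cm). All plants grow in a loam soil and sand blend.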

crabgrass, large [1] = assay: Test A preemergence; type: in vivo, Digitaria sanguinalis; conditions: Digitaria sanguinalis, pre-emergence, 240 h, 0 to 100 scale (0 no effect, 100 complete control), read-out: Plant response rating, Crabgrass, Large; for pest or weed control at 125 g/ha: 125 g ai/ha; for pest or weed control at 500 g/ha: 500 g ai/ha, approx. 10 d
Outline: as §1

crabgrass, large [2] = assay: Test C preemergence; type: in vivo, Digitaria sanguinalis; conditions: for Plant response rating (scale of 0 to 100 where 0 is no effect and 100 is complete control): Crabgrass, Large, preemergence; for Crabgrass, Large plant response rating (0 to 100): Preemergence, visual rating after 13 to 15 d
From the text: (§2) Seeds of plant species selected from blackgrass (Alopecurus myosuroides), ryegrass, Italian (Italian ryegrass, Lolium multiflorum), wheat (winter wheat, Triticum aestivum), galium (catchweed bedstraw, Galium aparine), corn (Zea mays), crabgrass, large (large crabgrass, Digitaria sanguinalis), foxtail, giant, (giant foxtail, Setaria faberii), johnsongrass (Sorghum halepense), lambsquarters (Chenopodium album), morningglory (Ipomoea coccinea), nutsedge, yellow (yellow nutsedge, Cyperus esculentus), pigweed (Amaranthus retroflexus), ragweed (common ragweed, Ambrosia elatior), soybean (Glycine max), barnyardgrass (Echinochloa crus-galli), oilseed rape (Brassica napus), waterhemp (common waterhemp, Amaranthus rudis), and velvetleaf (Abutilon theophrasti) were planted into a blend of loam soil and sand and treated preemergence with test chemicals formulated in a non-phytotoxic solvent mixture which included a surfactant. At the same time, plants selected from these crop and weed species and also chickweed (common chickweed, Stellaria media), oat, wild (wild oat, Avena fatua), and kochia (Kochia scoparia), were planted in pots containing Sunshine Redi-Earth® planting medium comprising spaghnum peat moss, vermiculite, starter nutrients and dolomitic limestone and treated with postemergence applications of test chemicals formulated in the same manner. Plants ranged in height from 2 to 18 cm (1- to 4-leaf stage) for postemergence treatments. […] A dash (-) response means no test result.

soybean = assay: Test C preemergence; type: in vivo, Glycine max; conditions: for Soybean plant response rating (0 to 100): Preemergence, visual rating after 13 to 15 d; for Plant response rating (scale of 0 to 100 where 0 is no effect and 100 is complete control): Soybean, preemergence, 250 g ai/ha
From the text: as §2

kochia = assay: Test A preemergence; type: in vivo, Kochia scoparia; conditions: 0 to 100 scale (0 no effect, 100 complete control)
From the text: Seeds of plant species selected from barnyardgrass (Echinochloa crus-galli), crabgrass, large (large crabgrass, Digitaria sanguinalis), kochia (Kochia scoparia), ragweed (common ragweed, Ambrosia elatior), foxtail, giant (giant foxtail, Setaria faberii), morningglory (Ipomoea spp.), pigweed (Amaranthus retroflexus), velvetleaf (Abutilon theophrasti), ryegrass, Italian (Italian ryegrass, Lolium multiflorum), wheat (Triticum aestivum), and corn (Zea mays) were planted into a blend of loam soil and sand and treated preemergence with a directed soil spray using test chemicals formulated in a non-phytotoxic solvent mixture which included a surfactant.
At the same time, plants selected from these crop and weed species and also blackgrass (Alopecurus myosuroides), and galium (catchweed bedstraw, Galium aparine), were planted in pots containing the same blend of loam soil and sand and treated with postemergence applications of test chemicals formulated in the same manner. Plants ranged in height from 2 to 10 cm and were in the one- to two-leaf stage for the postemergence treatment. Treated plants and untreated controls were maintained in a greenhouse for approximately 10 d, after which time all treated plants were compared to untreated controls and visually evaluated for injury. Plant response ratings, summarized in Table A, are based on a 0 to 100 scale where 0 is no effect and 100 is complete control. A dash (-) response means no test result.

Row | SMILES | Corn plant response rating (crop injury, 0 = no effect, 100 = complete kill) at 125 g/ha (corn) [%] | Corn plant response rating (crop injury, 0 = no effect, 100 = complete kill) at 500 g/ha (corn) [%] | pest or weed control at 125 g/ha (crabgrass, large [1]) [%] | pest or weed control at 500 g/ha (crabgrass, large [1]) [%] | Plant response rating (scale of 0 to 100 where 0 is no effect and 100 is complete control) (crabgrass, large [2]; 125 g ai/ha) | Plant response rating (scale of 0 to 100 where 0 is no effect and 100 is complete control) (crabgrass, large [2]; 250 g ai/ha) | Crabgrass, Large plant response rating (0 to 100) (crabgrass, large [2]; 31 g ai/ha) | Crabgrass, Large plant response rating (0 to 100) (crabgrass, large [2]; 62 g ai/ha) | Soybean plant response rating (0 to 100) (soybean; 31 g ai/ha) | Soybean plant response rating (0 to 100) (soybean; 62 g ai/ha) | Plant response rating (scale of 0 to 100 where 0 is no effect and 100 is complete control) (soybean) | Plant response rating, Kochia (kochia; 31 g ai/ha) | Plant response rating, Kochia (kochia; 125 g ai/ha) | Plant response rating, Kochia (kochia; 500 g ai/ha, approx. 10 d)
1 | CCn1nc(-c2ccc(F)cc2)nc1C(=O)c1ccnc(C(F)(F)F)c1 [Compound 19, [1-ethyl-3-(4-fluorophenyl)-1H-1,2,4-triazol-5-yl][2-(trifluoromethyl)-4-pyridinyl]methanone] | 0 | 0 | 0 | 50 | – | – | – | – | – | – | – | – | – | –
2 | COc1nc(-c2ccc(F)cc2)nn1Cc1ccnc(C(F)(F)F)c1 [Compound 9, 4-[[3-(4-fluorophenyl)-5-methoxy-1H-1,2,4-triazol-1-yl]methyl]-2-(trifluoromethyl)pyridine] | 0 | 40 | 100 | 100 | 100 | 100 | 95 | 100 | 0 | 0 | 40 | – | – | –
3 | CCOc1nc(-c2ccc(Cl)cc2)nn1Cc1ccnc(C(F)(F)F)c1 [Compound 26] | – | – | – | – | – | – | – | – | – | – | – | 60 | 90 | –
4 | CCCOc1nc(-c2ccccc2)nn1Cc1ccnc(C(F)(F)F)c1 [Compound 33] | – | – | – | – | – | – | – | – | – | – | – | – | 60 | 90
5 | COc1nc(-c2ccc(C(F)(F)F)cc2)nn1Cc1ccnc(C(F)(F)F)c1 [Compound 25] | – | – | – | – | – | – | – | – | – | – | – | 20 | 80 | –
6 | CCCc1nc(-c2ccc(F)cc2)nn1Cc1ccnc(C(F)(F)F)c1 [Compound 6, 4-[[3-(4-fluorophenyl)-5-propyl-1H-1,2,4-triazol-1-yl]methyl]-2-(trifluoromethyl)pyridine] | 20 | 30 | 100 | 100 | 100 | 100 | 100 | 100 | 5 | 5 | 70 | – | – | –
